Where a SMILES comes first, the peptide text is derived from it.

The test system of one assay is Listeria innocua 33090. Briefly: MIC determination / agar spot assay of synthetic peptides. Type of assay: cell-based. The following applies: synthetic peptides. On the procedure:
Synthetic samples of wild-type Pln-423, two variants Pln-S23E and Pln-H28R/H34E from this study (Pln-4 and Pln-7 on Fig. 2), and another high-activity variant Pln-S27D/K36N (discovered during a pilot study, data not shown) were tested on agar plates at varying concentrations.
MICs were determined as previously described, [35]. Synthetic peptides were obtained from Peptide 2.0, Inc. (Chantilly, VA) and dissolved in 0.1% acetic acid/water solution at the final concentration of 2.5 mg/ml. Listeria innocua 33090 was grown in TSB until the turbidity of the culture match that of McFarland standard 0.5 (∼OD600 = 0.11) and diluted to final concentration of 5×10^5 cfu/ml in 20 ml TSB soft agar (1.2%) per plate. Two-fold serial dilutions (starting at 128 µg/ml) for each peptide was carried out in ultra-pure deionized water and 5 µl aliquots of each dilution were spotted on TSB plates. After the plates were incubated for 1 h at room temperature, they were placed at 37°C for overnight incubation. This experiment was performed in triplicate and the MIC was calculated as the lowest peptide concentration that formed a visible growth inhibition zone.
On to `CC(C)C[C@H](NC(=O)[C@H](CCCNC(=N)N)NC(=O)[C@H](CO)NC(=O)[C@@H](NC(=O)[C@H](CO)NC(=O)[C@H](CS)NC(=O)[C@H](CO)NC(=O)[C@H](Cc1ccccc1)NC(=O)[C@H](C)NC(=O)[C@H](CCC(N)=O)NC(=O)CNC(=O)[C@H](Cc1c[nH]c2ccccc12)NC(=O)[C@H](CC(N)=O)NC(=O)[C@@H](NC(=O)[C@H](CO)NC(=O)[C@H](CS)NC(=O)[C@H](CO)NC(=O)[C@H](Cc1c[nH]cn1)NC(=O)[C@H](CCCCN)NC(=O)CNC(=O)[C@H](CS)NC(=O)[C@@H](NC(=O)[C@@H](NC(=O)CNC(=O)[C@H](CC(N)=O)NC(=O)CNC(=O)[C@H](Cc1ccc(O)cc1)NC(=O)[C@H](Cc1ccc(O)cc1)NC(=O)[C@@H](N)CCCCN)C(C)C)[C@@H](C)O)C(C)C)C(C)C)C(=O)N[C@@H](C)C(=O)N[C@@H](CC(N)=O)C(=O)N[C@@H](Cc1ccccc1)C(=O)NCC(=O)N[C@@H](CCC(=O)O)C(=O)NCC(=O)N[C@@H](CCCCN)C(=O)N[C@@H](CS)C(=O)O` [PLN-H28R/H34E] (H-KYYGNGVTCGKHSCSVNWGQAFSCSVSRLANFGEGKC-OH; N-terminus and C-terminus assumed), for which the “MIC fold lower than wild-type Pln-423” value is recorded as 2 fold. The same measure, in the same setting: under `CC(C)C[C@H](NC(=O)[C@H](Cc1c[nH]cn1)NC(=O)[C@H](CC(=O)O)NC(=O)[C@@H](NC(=O)[C@H](CO)NC(=O)[C@H](CS)NC(=O)[C@H](CO)NC(=O)[C@H](Cc1ccccc1)NC(=O)[C@H](C)NC(=O)[C@H](CCC(N)=O)NC(=O)CNC(=O)[C@H](Cc1c[nH]c2ccccc12)NC(=O)[C@H](CC(N)=O)NC(=O)[C@@H](NC(=O)[C@H](CO)NC(=O)[C@H](CS)NC(=O)[C@H](CO)NC(=O)[C@H](Cc1c[nH]cn1)NC(=O)[C@H](CCCCN)NC(=O)CNC(=O)[C@H](CS)NC(=O)[C@@H](NC(=O)[C@@H](NC(=O)CNC(=O)[C@H](CC(N)=O)NC(=O)CNC(=O)[C@H](Cc1ccc(O)cc1)NC(=O)[C@H](Cc1ccc(O)cc1)NC(=O)[C@@H](N)CCCCN)C(C)C)[C@@H](C)O)C(C)C)C(C)C)C(=O)N[C@@H](C)C(=O)N[C@@H](CC(N)=O)C(=O)N[C@@H](Cc1ccccc1)C(=O)NCC(=O)N[C@@H](Cc1c[nH]cn1)C(=O)NCC(=O)N[C@@H](CC(N)=O)C(=O)N[C@@H](CS)C(=O)O` [PLN-S27D/K36N] (H-KYYGNGVTCGKHSCSVNWGQAFSCSVDHLANFGHGNC-OH; N-terminus and C-terminus assumed) stands 2 fold.

The next assay deals with Listeria innocua 33090. Briefly: colony overlay assay of peptide-secreting E. coli clones (library screening and re-test). Details: key: higher activity group (H); equal activity group (E); lower activity group (L). The following applies: library screening; selected colonies pooled by zone size; peptides identified by 454 sequencing, full-length sequences with minimum 20 reads. In kind it is cell-based. An outline of the steps:
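Pln-423 mutant library expressed periplasmically in leaky E. coli JE5505 (pFLAG-CTS); colonies grown 24 h at 37°C, then overlaid with TSB soft agar containing 1 mM IPTG and L. innocua ATCC 33090 (OD600 = 0.03) and incubated overnight at 30°C. Activity scored by inhibition-zone size versus wild-type Pln-423; hits re-tested after 4 h regrowth.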
For “KYYGNGVTCGKHSCSVNWGRAFSCSVSRLANFGHGKC* [Pep-2_6523]”, the “activity group by size of inhibition zone compared to wild-type Pln-423” value is recorded as “L”. The same measure, in the same setting: the entry for “KYYGNGVTCGKHSCSVNWGQAFSCSVSALANFGHGRC* [Pep-2_7045]” is “L”. Still for that read-out and setting: the entry for “KYYGNGVTCGKHSCSVNWGQAFSCSVEHLANFGHGGC* [Pep-2_6077]” is “E and H”; for “KYYGNGVTCGKHSCSVNWGQAFSCVVSHLANFGHGTC* [Pep-2_4995]” it is “L”. The same measure, in the same setting: under “KYYGNGVTCGKHSCSVNWGVAFSCSVSHLANFGHGWC* [Pep-2_1758]” stands “L”; under “KYYGNGVTCGKHSCSVNWGQAFWCSVSKLANFGHGKC* [Pep-2_3865]”, “L”. In the case of “KYYGNGVTCGKHSCSVNWGQAFVCSVDHLANFGHGKC* [Pep-2_3644]”, the “activity group by size of inhibition zone compared to wild-type Pln-423” value was “E”. The same measure, in the same setting: the entry for “KYYGNGVTCGKHSCSVNWGQAFSCSVSNLANFGHGCC* [Pep-2_6834]” is “L”; for “KYYGNGVTCGKHSCSVNWGQAFSCSVSHLANFGEGKC* [Pep-1_98]” it is “H”; for “KYYGNGVTCGKHSCSVNWGQAFSCSVTHLANFGHGRC* [Pep-2_6181]” it is “E”. On the same count and under the same terms, under “KYYGNGVTCGKHSCSVNWGQAFSCVVSHLANFGHGKC* [Pep-1_46]” stands “L”.

The record behind these values is paper PMC3602187, “From Design to Screening: A New Antimicrobial Peptide Discovery Pipeline” (PLoS ONE, 2013).
